Data: a compilation of properties of binary mixtures (doi:10.1016/j.molliq.2016.11.074)

Experiment: xn = mol fraction of the nth substance listed
Details: 100 kPa

O + CC[n+]1ccn(C)c1.CS(=O)(=O)[O-]
Details	electrical conductivity [S/m]
298.15 K, x1 = 1	0.0002

CC[n+]1ccn(C)c1.CS(=O)(=O)[O-] + O
Details	electrical conductivity [S/m]	speed of sound [m/s]
293.15 K, x2 = 0.0015	–	1779
293.15 K, x2 = 0.1905	–	1793
293.15 K, x2 = 0.3226	–	1808
293.15 K, x2 = 0.4301	–	1817
293.15 K, x2 = 0.619	–	1851
293.15 K, x2 = 0.7573	–	1853
293.15 K, x2 = 0.9048	–	1803
298.15 K, x1 = 0.0119	2.19	–
298.15 K, x2 = 0	0.45	1766
298.15 K, x2 = 0.191	0.707	–
298.15 K, x2 = 0.3226	–	1795
298.15 K, x2 = 0.3233	0.851	–
298.15 K, x2 = 0.5054	–	1818
298.15 K, x2 = 0.5057	1.24	–
298.15 K, x2 = 0.6206	–	1840
298.15 K, x2 = 0.7542	2.37	–
298.15 K, x2 = 0.7573	–	1846
298.15 K, x2 = 0.902	3.74	–
298.15 K, x2 = 0.9032	–	1791
298.15 K, x2 = 0.9651	3.87	–
303.15 K, x2 = 0	–	1753
303.15 K, x2 = 0.3241	–	1784
303.15 K, x2 = 0.427	–	1793
303.15 K, x2 = 0.5069	–	1807
303.15 K, x2 = 0.7542	–	1841
303.15 K, x2 = 0.9048	–	1779
303.15 K, x2 = 0.9662	–	1680
308.15 K, x2 = 0	–	1743
308.15 K, x2 = 0.192	–	1757
308.15 K, x2 = 0.3241	–	1771
308.15 K, x2 = 0.4286	–	1783
308.15 K, x2 = 0.5054	–	1795
308.15 K, x2 = 0.6206	–	1818
308.15 K, x2 = 0.7558	–	1838
308.15 K, x2 = 0.9032	–	1765
313.15 K, x2 = 0.192	–	1745
313.15 K, x2 = 0.3241	–	1760
313.15 K, x2 = 0.5084	–	1784
313.15 K, x2 = 0.6206	–	1808
313.15 K, x2 = 0.7558	–	1830
313.15 K, x2 = 0.9662	–	1668
